In publication PMC3991664, “Growth Inhibitory, Bactericidal, and Morphostructural Effects of Dehydrocostus Lactone from Magnolia sieboldii Leaves on Antibiotic-Susceptible and -Resistant Strains of Helicobacter pylori” (PLoS ONE, 2014):

Molecular target: T1, urease (UreB subunit) (Helicobacter pylori, UniProt P69996)
T1 construct: native crude urease of H. pylori ATCC 43504 (UreA and UreB subunits); with UreA (urease subunit)
Test: urease activity inhibition in crude urease preparation, indophenol (ammonia release) assay; Western blot of subunits
Assay type: biochemical

T1 sequence (P69996 whole entry): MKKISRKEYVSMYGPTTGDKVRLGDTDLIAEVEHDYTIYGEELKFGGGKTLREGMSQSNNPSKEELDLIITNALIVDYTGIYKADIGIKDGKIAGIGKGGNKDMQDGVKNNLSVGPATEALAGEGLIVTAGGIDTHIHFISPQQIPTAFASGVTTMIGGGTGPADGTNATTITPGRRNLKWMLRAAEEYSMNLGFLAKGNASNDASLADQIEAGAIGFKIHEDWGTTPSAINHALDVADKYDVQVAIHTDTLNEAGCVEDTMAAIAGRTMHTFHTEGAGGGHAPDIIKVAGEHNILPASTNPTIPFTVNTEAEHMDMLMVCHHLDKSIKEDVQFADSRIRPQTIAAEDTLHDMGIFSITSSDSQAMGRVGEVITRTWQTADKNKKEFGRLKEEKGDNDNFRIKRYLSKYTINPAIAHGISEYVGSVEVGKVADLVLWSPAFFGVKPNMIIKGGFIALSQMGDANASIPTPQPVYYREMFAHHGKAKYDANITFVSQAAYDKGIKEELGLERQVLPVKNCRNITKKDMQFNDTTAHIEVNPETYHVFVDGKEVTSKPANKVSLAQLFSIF

Q: How did the IC50 turn out when `O=C(O[C@@H]1Cc2c(O)cc(O)cc2O[C@@H]1c1cc(O)c(O)c(O)c1)c1cc(O)c(O)c(O)c1` [(–)-epigallocatechin gallate] was run?
A: Its IC50 is 30 µM.
